Data as given in patent US20050153947A1, “Methods and reagents for the treatment of diseases and disorders associated with increased levels of proinflammatory cytokines” (priority 2002, published 2005).
Where two headings read alike, the source gives them in different places.

Key:
TNFα [1] = assay: TNFα secretion by stimulated white blood cells, SSRI/corticosteroid combination matrices (Example 4, stimulus not given); assay type: cell-based; conditions: Homo sapiens, read-out: percent inhibition of TNFα secretion; for inhibition at 0.003 µM: prednisolone 0.003 μM; for inhibition at 0.006 µM: prednisolone 0.006 μM; for inhibition at 0.05 µM: prednisolone 0.050 μM; for inhibition at 0.1 µM: prednisolone 0.100 μM; for inhibition at 0.2 µM: prednisolone 0.200 μM
TNFα [2] = assay: TNFα secretion by white blood cells/PBMC stimulated with phorbol 12-myristate 13-acetate and ionomycin (PI), ELISA; conditions: concentration (μM)
Description: (§1) Various concentrations of each test compound were added at the time of stimulation. […] After the plate was washed with 0.1% Tween 20/PBS, an HRP-luminescent substrate was added to each well and light intensity measured using a LJL Analyst plate luminometer.
(§2) Single agents were tested for the ability to suppress secretion of IFNγ, IL-1β, IL-2, and TNFα from stimulated white blood cells, and the percent inhibition of cytokine secretion, relative to untreated stimulated white blood cells, was determined.

IL-2 = IL-2 secretion by white blood cells/PBMC stimulated with phorbol 12-myristate 13-acetate and ionomycin (PI), ELISA; conditions: for percent inhibition of cytokine secretion, IL-2: concentration (μM)
Description: as §1, §2

TNFα [3] = assay: TNFα secretion by white blood cells stimulated with lipopolysaccharide (LPS), ELISA; assay type: cell-based, human; conditions: concentration (μM)
Description: as §1, §2

IL-1β = IL-1β secretion by white blood cells stimulated with lipopolysaccharide, ELISA; assay type: cell-based, human
Description: as §1, §2

IL-4 = IL-4 secretion, buffy coat assay supernatant, Cytometric 6 Bead Array; conditions: Homo sapiens, read-out: IL-4 % Inhibition
Description: (§3) Analysis of IL-4 and IL-5 cytokine expression was performed using the BD PharMingen Cytometric 6 Bead Array system according to the manufacturer's instructions. Briefly, the supernatant from a buffy coat assay plate wa incubated with the labeled cytokine detection bead cocktail. The samples were then washed, resuspended and read on the BD Pharmingen FACsCalibur flow cytometer. Data was then analyzed using the BD Pharmingen CBA 6 Bead Analysis software.

IL-5 = IL-5 secretion, buffy coat assay supernatant, Cytometric 6 Bead Array; conditions: Homo sapiens, read-out: IL-5 % Inhibition
Description: as §3

[4] = citalopram alone, 20.00 to 0.01
[5] = fluoxetine alone, 29.00 to 0.01
[6] = Homo sapiens, PBMC, read-out: % Inhibition IL-2 PBMC PI
[7] = norfluoxetine alone, 45.00 to 0.02
[8] = paroxetine alone, 27.00 to 0.03
[9] = fluoxetine concentration (μM), 7.230 to 0.000
[10] = paroxetine concentration (μM), 6.000 to 0.000
[11] = R(+) fluoxetine alone, 58 to 0.028
[12] = S(+) fluoxetine alone, 58 to 0.028

`CCCC1O[C@@H]2C[C@H]3[C@@H]4CCC5=CC(=O)C=C[C@]5(C)[C@H]4[C@@H](O)C[C@]3(C)[C@]2(C(=O)CO)O1` (stereo partly shown) [Budesonide, budesonide] gave an inhibition at 0.0005 µM (TNFα [1]; budesonide 0.0005 μM, fluoxetine concentration (μM), 0 to 0.580) of -2.4%, an inhibition at 0.002 µM (TNFα [1]; budesonide 0.002 μM, fluoxetine concentration (μM), 0 to 0.580) of -8.9% and an inhibition at 0.009 µM (TNFα [1]; budesonide 0.009 μM, fluoxetine concentration (μM), 0 to 0.580) of 5.3%.
`CN(C)CCCC1(c2ccc(F)cc2)OCc2cc(C#N)ccc21` (stereo not shown) [Citalopram] was tested, and the “percent inhibition of cytokine secretion, TNFα (PI)” value (“percent inhibition … (PI)” for short) (TNFα [2]; [4]) was 0% and the “percent inhibition of cytokine secretion, IL-2” value (from here on “percent inhibition … IL-2”) (IL-2; [4]) was 0%.
With `C[C@@H]1C[C@H]2[C@@H]3CCC4=CC(=O)C=C[C@]4(C)[C@@]3(F)[C@@H](O)C[C@]2(C)[C@@]1(O)C(=O)CO` [Dexamethasone, dexamethasone] the inhibition at 0.0004 µM (TNFα [1]; dexamethasone 0.0004 μM, paroxetine concentration (μM), 0 to 6.000) was 2.1%, the inhibition at 0.0006 µM (TNFα [1]; dexamethasone 0.0006 μM, fluoxetine concentration (μM), 0 to 0.580) was -3.8% and the inhibition at 0.0008 µM (TNFα [1]; dexamethasone 0.0008 μM, paroxetine concentration (μM), 0 to 6.000) was 6.7%.
For `CNCCC(Oc1ccc(C(F)(F)F)cc1)c1ccccc1` (stereo not shown) [Fluoxetine], the “percent inhibition of cytokine secretion, TNFα (LPS)” value (from here on “percent inhibition … (LPS)”) (TNFα [3]; [5]) was 0%, the “percent inhibition of cytokine secretion, IL-1β” value (shortened to “percent inhibition … IL-1β”) (IL-1β; fluoxetine alone, concentration (μM), 29.00 to 0.01) was 0% and the “percent inhibition … (PI)” value (TNFα [2]; [5]) was 6%. It also gave an inhibition at 10 µM (IL-2; [6]) of 16.1%, an inhibition at 21 µM (IL-2; [6]) of 47.4% and an inhibition at 42 µM (IL-2; [6]) of 90.3%. The inhibition at 84 µM (IL-2; [6]) was 103% and the “percent inhibition … IL-2” value (IL-2; [5]) was 0%.
In the case of `COCCCC/C(=N\OCCN)c1ccc(C(F)(F)F)cc1` [Fluvoxamine], the “percent inhibition … (LPS)” value (TNFα [3]; fluvoxamine alone, 63 to 0.031) is reported as 0%, the “percent inhibition … IL-1β” value (IL-1β; fluvoxamine alone, concentration (μM), 63 to 0.031) is reported as 0% and the “percent inhibition … (PI)” value (TNFα [2]; fluvoxamine alone, 63 to 0.031) is reported as 0%. The inhibition at 5 µM (IL-2; [6]) was 3.6%, the inhibition at 10 µM (IL-2; [6]) was 8.1% and the inhibition at 20 µM (IL-2; [6]) was 22%.
In the case of `NCCC(Oc1ccc(C(F)(F)F)cc1)c1ccccc1` (stereo not shown) [Norfluoxetine, norfluoxetine], the “percent inhibition … (LPS)” value (TNFα [3]; [7]) is reported as 0%, the “percent inhibition … IL-1β” value (IL-1β; norfluoxetine alone, concentration (μM), 45.00 to 0.02) is reported as 0% and the “percent inhibition … (PI)” value (TNFα [2]; [7]) is reported as 0%. The “percent inhibition … IL-2” value (IL-2; [7]) was 0%.
With `Fc1ccc([C@@H]2CCNC[C@H]2COc2ccc3c(c2)OCO3)cc1` [Paroxetine] the “percent inhibition … (LPS)” value (TNFα [3]; [8]) was 0%, the “percent inhibition … IL-1β” value (IL-1β; paroxetine alone, concentration (μM) in c4 of the same row, 53.00 to 0.05) was 0% and the inhibition at 28 µM (IL-4) was 97.1%. For the same molecule, the inhibition at 28 µM (IL-5) was 97.8%, the “percent inhibition … (PI)” value (TNFα [2]; [8]) was 0% and the inhibition at 18 µM (IL-2; [6]) was 54.2%. The inhibition at 36 µM (IL-2; [6]) was 83.5%, the inhibition at 72 µM (IL-2; [6]) was 95.7% and the “percent inhibition … IL-2” value (IL-2; [8]) was 0%.
For `C[C@]12C=CC(=O)C=C1CC[C@@H]1[C@@H]2[C@@H](O)C[C@@]2(C)[C@H]1CC[C@]2(O)C(=O)CO` [Prednisolone, prednisolone], the inhibition at 0.5 µM (TNFα [1]; Prednisolone 0.500 μM alone) was 29.1%, the inhibition at 1 µM (TNFα [1]; Prednisolone 1.0000 μM alone) was 34% and the inhibition at 0.0008 µM (TNFα [1]; prednisolone 0.0008 μM, fluoxetine concentration (μM), 7.230 to 0.000) was 3.8%. For the same molecule, the inhibition at 0.003 µM (TNFα [1]; [9]) was 4.4%, the inhibition at 0.003 µM (TNFα [1]; [10]) was -0.1% and the inhibition at 0.006 µM (TNFα [1]; [9]) was 7%. The inhibition at 0.006 µM (TNFα [1]; [10]) was 4.6%, the inhibition at 0.05 µM (TNFα [1]; [9]) was 24.3% and the inhibition at 0.05 µM (TNFα [1]; [10]) was 23.4%. The inhibition at 0.1 µM (TNFα [1]; [9]) was 31.6%, the inhibition at 0.1 µM (TNFα [1]; [10]) was 29.4% and the inhibition at 0.2 µM (TNFα [1]; [9]) was 39.7%. It also gave an inhibition at 0.2 µM (TNFα [1]; [10]) of 34.1%, an inhibition at 0.4 µM (TNFα [1]; prednisolone 0.400 μM, paroxetine concentration (μM), 6.000 to 0.000) of 36.2% and an inhibition at 0.5 µM (TNFα [1]; prednisolone 0.500 μM, fluoxetine concentration (μM), 0 to 29.00) of 39%. The inhibition at 0.5 µM (TNFα [1]; prednisolone 0.500 μM, paroxetine concentration (μM), 0 to 27.00) was 35.4%, the inhibition at 1 µM (TNFα [1]; prednisolone 1.0000 μM, fluoxetine concentration (μM), 0 to 29.00) was 35.1% and the inhibition at 1 µM (TNFα [1]; prednisolone 1.0000 μM, paroxetine concentration (μM), 0 to 27.00) was 38.6%. For the same molecule, the inhibition at 1 µM (IL-4) was 47.8% and the inhibition at 1 µM (IL-5) was 75.5%.
For `CNCC[C@@H](Oc1ccc(C(F)(F)F)cc1)c1ccccc1` [R(+) Fluoxetine], the “percent inhibition … (LPS)” value (TNFα [3]; [11]) was 0%, the “percent inhibition … IL-1β” value (IL-1β; R(+) fluoxetine alone, concentration (μM), 58 to 0.028) was 0% and the “percent inhibition … (PI)” value (TNFα [2]; [11]) was 0%. For the same molecule, the “percent inhibition … IL-2” value (IL-2; [11]) was 0%.
With `CNCC[C@H](Oc1ccc(C(F)(F)F)cc1)c1ccccc1` [S(+) Fluoxetine] the “percent inhibition … (LPS)” value (TNFα [3]; [12]) was 0%, the “percent inhibition … IL-1β” value (IL-1β; S(+) fluoxetine alone, concentration (μM), 58 to 0.028) was 0% and the “percent inhibition … (PI)” value (TNFα [2]; [12]) was 0%. The “percent inhibition … IL-2” value (IL-2; [12]) was 0%.
In the case of `COc1ccc(C(CN(C)C)C2(O)CCCCC2)cc1` (stereo not shown) [Venlafaxine], the “percent inhibition … (LPS)” value (TNFα [3]; venlafaxine alone, 39.83 to 0.02) is reported as 3.33%.
